Where a SMILES comes first, the peptide text is derived from it. The star is where a group is joined. Cbz = O=C(OCc1ccccc1)*
Columns and labels:
p53 = test system: p53; design: method as in PMID 27283735; settings: cited from earlier work
[1] = test system: HIV-1 Tat (p14, p16) and Gag; test: Rescue of Tat/Gag expression by proteasome inhibitor MG132; format: cell-based; settings: MG132 10 μM for 8 h, with 791, 833 or 892
Description: To assess effect of compounds on HIV-1 Tat stability, the decay of HIV-1 Tat levels was compared between DMSO-treated and compound-treated protein lysates in the presence of cycloheximide. In the first set of experiments, HIV-1 gene expression was induced with doxycylin (dox) for 24 h then 10 μg/mL cycloheximide was added to block new protein synthesis in combination with either DMSO or the compounds. Cells were harvested every 2 h and Tat protein levels measured by western blot. Quantification of the relative intensity of the detected bands was performed using ImageLab software (BioRad) and normalized to corresponding bands of the loading control (GAPDH) from at least three independent experiments. To determine whether the compounds’ effect on HIV-1 gene expression could be reversed by inhibition of the proteasome, compound treatment assay was performed as previously described with the addition of 10 μM MG132 (Sigma-Aldrich) to compound-treated cells 8 h prior to harvesting. Equal amounts of protein were run on 13 or 14% gels by SDS-PAGE, blotted and probed with antibodies for Tat and GAPDH. Quantification of the relative intensity of the detected bands was performed using ImageLab software (BioRad) and normalized to corresponding bands of the loading control (GAPDH) from at least three independent experiments.

[2] = test system: total protein synthesis in HeLa HIVrtTA∆Mls cells; test: SUnSET total protein synthesis; format: cell-based; settings: negative control
Description: The effect of the compounds on nascent protein synthesis was measured by surface sensing of translation (SUnSET) as described by Schmidt et al.. Cells were incubated with puromycin, an aminoacyl tRNA analog, to allow puromycin incorporation into newly translated peptides and prevention of further ribosomal elongation by chain termination. To assess the effect of the compounds on protein translation, cells were prepared and treated as described above, but were incubated with 10 μg/mL of puromycin for a period of 30 min prior to harvesting cell lysates for protein analysis. Protein concentration of cell lysates was quantified by Bradford assay and equal amounts of protein (30–35 μg) was run on either 10% or 4–15% (gradient) gels. Following transfer to PVDF (BioRad), blots were probed with mouse monoclonal antibody to puromycin (anti-12D10, EMD Millipore). Blots were developed using ECL Plus (Perkin-Elmer) or Clarity (BioRad) and imaged using the ChemiDoc MP Imager (BioRad). To quantify the levels of protein synthesis, the volume intensity in each lane of compound-treated sample was calculated relative to the DMSO-treated sample and normalized to GAPDH loading control using ImageLab software (BioRad) from at least four independent experiments.

HIV-1 US, SS and MS RNAs = test: qRTPCR of HIV-1 RNAs in 293T cells transfected with pHxbc2 R-/RI-; format: cell-based; settings: 20 nM, 24 h, 293T (Figure S6)
Description: Samples were processed and assayed as previously described using the BioRad Aurum Total RNA Lysis Kit (BioRad) as per manufacturer’s instructions with the addition of Turbo DNase (Ambion). Purified RNA (0.5–2 μg) was reverse transcribed using M-MLV (Invitrogen) to generate complementary DNA (cDNA). HIV-1 and actin mRNA levels in DMSO- and compound-treated samples were quantified by qPCR using the Mastercycler ep realplex (Eppendorf) as described by Wong et al.. Gene quantification was evaluated using the absolute quantification method, normalized to β-actin expression, and expressed relative to DMSO-treatment.
Additional file 1: Figure S1. […] Cell viability was measured by an XTT assay. […] Cells were analyzed after 24 h incubation with the compounds at the indicated concentrations ranging between 0–47 μM (791), 0–5 μM (833), or 0–62.5 μM (892). Results are expressed as the percentage (%) of viable cells relative to DMSO treatment ±SEM of two independent experiments performed in triplicate. […] Images are cropped to show a representative field of view. b The dose range of the compounds which inhibit HIV-1 GagGFP expression in HeLa rtTA HIVGagGFP C7 cells was measured by mean fluorescence intensity and expressed relative to fluorescence intensity in DMSO-treated samples (N ≥ 3, *p ≤ 0.05, **p ≤ 0.01, and ***p ≤ 0.001). […]

## COc1cc(/C=C/C(=O)CC(=O)/C=C/c2ccc(O)c(OC)c2)ccc1O [curcumin]
p53
  Tat and p53 levels: reduces

## CC(C)C[C@@H](C=O)NC(=O)[C@H](CC(C)C)NC(=O)[C@H](CC(C)C)NC(=O)OCc1ccccc1 [MG132, reference compound] (Cbz-Leu-Leu-Leu-aldehyde)
[1]
  production of HIV-1 Gag on addition of MG132: did not restore

## C[C@@H]1C[C@@H]([C@H](O)CC2CC(=O)NC(=O)C2)C(=O)[C@@H](C)C1 [cycloheximide, reference compound]
[2]
  puromycin signal (newly synthesized polypeptides): little

## CCC(=C/[C@H](C)C/C=C/C(C)=C/[C@@H](C)C(=O)[C@@H](C)[C@H](O)[C@@H](C)C/C(C)=C/C(=O)O)/C=C/[C@@H]1OC(=O)C=C[C@@H]1C [leptomycin B]
HIV-1 US, SS and MS RNAs
  HIV-1 MS RNA abundance: little or no change
  HIV-1 US and SS RNA levels: dramatic reduction

Source: article PMC5267425, “Identification of small molecule modulators of HIV-1 Tat and Rev protein accumulation” (Retrovirology, 2017)
